Here are results for 10 molecules from patent US5208344A, “Naphthalenepropionic acid derivatives as anti-inflammatory/antiallergic agents” (American Home Products Corporation, priority 1991, dated 1993).

In general, ED50 refers to the midpoint of the dose-response relation. By pKB is commonly meant the KB on a negative log10 scale, so that one unit is a factor of ten. The inhibition is the relative decrease from the control value, in per cent.

Molecules are shown by their SMILES. Read-outs that look alike come from different tables or passages of the source.

Experiment [1] concerns pleural inflammation. As to the kind of experiment: reverse passive Arthus pleurisy assay, pleural inflammation. The experiment is classed as in vivo. To be noted: rat; for ED30 Fluid Exudation / ED30: p.o.; for ED30: po, 4 h. As for the experimental part: (§1) The compounds of the invention are further tested in the reverse passive Arthus pleurisy assay to evaluate their effectiveness in inflammatory mediator release and/or the fluid and cellular phases of an inflammatory response.
(§2) A reverse passive Arthus reaction is induced in the pleural cavity of male Lewis rats (150-200 g; fasted overnight prior to use) by the intravenous administration of bovine serum albumin (BSA; 4 mg/0.2 ml) followed 30 minutes later by the injection of rabbit anti-BSA (1 mg/0.2 ml; lyophilized IgG fraction; Organon Teknika, West Chester, PA) into the right pleural space under halothane anesthesia. Drugs or vehicle (0.5% Tween-80) control are administered orally in a volume of 1 ml/100 g body weight at 1 hour prior to the anti-BSA. Animals are sacrificed at either the time of peak eicosanoid production (i.e. 5 minutes after anti-BSA for immunoreactive TxB2, 10 minutes for immunoreactive LTB4, 20 minutes for immunoreactive LTC4) or at the time of peak neutrophil infiltration (4 hours after anti-BSA) by CO2 inhalation. The pleural cavity is then exposed, the fluid exudate removed by gentle vacuum aspiration and the volume of exudate is recorded. For the determination of cellular infiltration, the pleural cavity is rinsed with 3 ml of 0.1% EDTA in sterile saline, and the recovered wash is pooled with the exudate. Cell number is determined on a model ZBI Coulter counter. For determination of eicosanoid production, undiluted pleural exudate is microfuged and the supernatant is extracted with ethanol (8-10 times volume). Extracts are either stored at -20° C., or are evaporated to dryness under a stream of N2 and reconstituted in radioimmunoassay (RIA) buffer.
(§3) Inflammatory cells are expressed as 10^6 cells/ml, pleural exudate is expressed as ml of fluid, and the amount of eicosanoids in the pleural cavity is expressed as ng/ml of exudate. Mean±S.E.M. is determined for each group. Percent inhibition (% I) of cell number, exudate volume and eicosanoid production is calculated for vehicle-treated control groups, and the responses in drug-treated rats are then expressed as the mean $ I of control.

The test system of experiment [2] is inflammatory mediator release. As to the kind of experiment: reverse passive Arthus pleurisy assay, inflammatory mediator release. The experiment is classed as in vivo, rat. As to conditions: for ED50: Rattus norvegicus, po. Here is the method: as §1
as §2, with “Drugs or vehicle (0.5% Tween-80) control are administered orally in a volume of 1 ml/100 g body weight at 1 hour prior to the anti-BSA.” left out
Eicosanoids are quantitated by RIA according to the procedure specified by the RIA kit manufacturer (Advanced Magnetics, Cambridge, MA). Briefly, 100 μl of ^3 H-labeled eicosanoid and 100 μl of specific antibody are sequentially added to 100 μl of extracted pleural exudate in BGG-phosphate buffer which contains 0.01 M phosphate, 0.1% bovine gamma globulin and 0.1% sodium azide at pH 7.0. Antibody-bound eicosanoid is separated form unbound eicosanoid by the addition of 750 μl of dextran (0.4%)-coated charcoal (0.4% Norit A) containing 0.1% sodium azide. The mixture is centrifuged at 2000 RPM at 5° C. for 15 minutes to pellet the charcoal and adsorbed unbound eicosanoid. Antibody-bound labeled eicosanoid is quantitated by counting in a liquid scintillation counter, and is correlated to concentration by a standard curve.
as §3

For experiment [3], the target named is T1, LTD4 (Cavia porcellus, UniProt Q2NNR5).
T1 construct: isolated guinea pig trachea; from tissue; host or cells: guinea pig tracheal rings
T1 sequence (Q2NNR5 1-340): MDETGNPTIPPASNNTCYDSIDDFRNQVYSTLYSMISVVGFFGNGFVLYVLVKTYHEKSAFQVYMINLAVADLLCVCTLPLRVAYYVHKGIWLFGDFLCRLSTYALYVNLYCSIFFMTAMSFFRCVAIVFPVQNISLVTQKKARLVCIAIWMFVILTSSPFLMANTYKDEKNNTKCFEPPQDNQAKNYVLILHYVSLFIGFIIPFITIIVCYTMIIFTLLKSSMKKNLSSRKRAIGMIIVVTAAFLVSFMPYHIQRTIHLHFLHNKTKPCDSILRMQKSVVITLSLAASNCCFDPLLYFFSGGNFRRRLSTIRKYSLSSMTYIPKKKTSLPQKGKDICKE
In words: LTD4 antagonist activity in isolated guinea pig trachea. The experiment is classed as cell-based. As to conditions: reference leukotriene antagonists. Here is the method: The LTD4 antagonist activity of the compounds of the invention is assessed in the in vitro isolated guinea pig trachea assay. Male Hartley guinea pigs (350-400 g) are euthanized by a blow to the head, the neck is opened and the trachea removed. The trachea is maintained in aerated physiological salt solution, cleared of connective tissue and fat and cut into rings approximately 2 mm in width (usually containing two cartilaginous segments per ring). Two pieces of silk suture are then passed through the lumen of the tracheal ring and are tied around the cartilage, one on each side of the trachealis muscle. The tracheal ring is suspended between a glass hook and a force displacement transducer in a 10 ml organ bath for measurement of isometric tension. Tissues are maintained at 37° C. in aerated ([…] /5% CO2) physiological salt solution of the following composition: […] The tracheal rings are maintained at 2 g resting tension and equilibrated for 45 minutes (with frequence washing and readjustment of resting tension). The tracheal rings are first contracted by the addition of carbachol (3×10^-6 M), to determine tissue responsiveness and establish a reference contraction. On attainment of a stable level of contraction (approximately 30 minutes), the tissues are washed several times until baseline tension has been restored and the re-equilibrated for 30 minutes. The tissues are then incubated for 45 minutes with a test antagonist (either 1×10^-6 M or 1×10^-5 M) or 10 μl of an appropriate solvent control (control, non-treated). One tissue in each group serves as the control. Twenty minutes prior to the construction of the LTD4 cumulative concentration-response curve, L-[…]×10^-2 M final bath concentration) is added to inhibit bioconversion of LTD4 to LTE4. Only one LTD4 concentration-response curve is constructed in each tissue. All responses to LTD4 in an individual tissue are measured as a percentage of the reference contraction of that tissue to carbachol. LTD4 antagonist activity is determined by comparison of the concentration response curves of LTD4 in the presence and absence of antagonist. Assessment of the relative rightward shift of the antagonist treated curve relative to the solvent (control) treated tissue is calculated as a concentration ratio (Eq. A) and used in subsequent calculations to derive an antagonist pKB value (Eqs. B and C). In the vent that the maximum response to LTD4 is depressed, the EC50 for that particular curve is determined, an "apparent" pKB reported, and the compound reported as "not-competitive." [formula] If a compound is found to be active and/or depress the maximal response to LTD4, then a range of concentrations of the test compound should be used generating multiple concentration ratios which would than be used to perform a Schild analysis, and determination of a pA2 value where appropriate.

Experiment [4] concerns the target T2, 5-lipoxygenase (Rattus norvegicus, UniProt P12527).
T2 construct: Peritoneal PMN are obtained from female Wistar rats (150-250 g); endogenous in cells; host or cells: rat glycogen-elicited peritoneal polymorphonuclear leukocytes, intact
T2 sequence (P12527 1-673): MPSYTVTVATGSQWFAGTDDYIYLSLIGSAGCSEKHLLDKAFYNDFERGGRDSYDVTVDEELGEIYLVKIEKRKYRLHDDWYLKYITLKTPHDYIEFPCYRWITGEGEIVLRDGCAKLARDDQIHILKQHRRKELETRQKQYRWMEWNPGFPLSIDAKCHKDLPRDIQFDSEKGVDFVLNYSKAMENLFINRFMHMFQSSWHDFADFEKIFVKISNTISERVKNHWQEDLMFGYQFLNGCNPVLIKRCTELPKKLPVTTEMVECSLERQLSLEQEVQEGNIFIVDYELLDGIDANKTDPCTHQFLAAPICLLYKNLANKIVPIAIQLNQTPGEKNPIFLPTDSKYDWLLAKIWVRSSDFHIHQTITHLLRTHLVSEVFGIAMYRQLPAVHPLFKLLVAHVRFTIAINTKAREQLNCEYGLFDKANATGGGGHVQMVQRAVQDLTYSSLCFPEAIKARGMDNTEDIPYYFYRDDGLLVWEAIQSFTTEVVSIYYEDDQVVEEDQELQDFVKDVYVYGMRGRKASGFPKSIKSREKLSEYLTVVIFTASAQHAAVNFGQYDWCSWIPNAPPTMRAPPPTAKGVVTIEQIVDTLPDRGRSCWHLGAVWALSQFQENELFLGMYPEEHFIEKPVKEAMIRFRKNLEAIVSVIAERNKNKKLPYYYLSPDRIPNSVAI
In words: inhibition of 5-HETE synthesis by rat glycogen elicited polymorphonuclear leukocytes. The experiment is classed as cell-based. To be noted: read-out: % Inhibition of 5-LO (as 5-HETE). Here is the method:
The assay of this Example measures the ability of the compounds of the invention to inhibit the synthesis of 5-HETE by rat glycogen elicited polymorphonuclear leukocytes.
(§4) Peritoneal PMN are obtained from female Wistar rats (150-250 g) that received an i.p. injection of 6% glycogen (10 ml). After 24 hours, rats are killed by CO2 asphysiation and peritoneal cells are harvested by peritoneal lavage using Ca^++ and MG^++ free Hanks' balanced salt solution (HBSS). The peritoneal exudate is centrifuged at 400 g for 10 minutes. After centrifugation, the lavaged fluid is removed and the cell pellet is resuspended in HBSS containing Ca^++ and MG^++ and 10 mM L-cysteine at a concentration of 2×10^7 cells/ml. To 1 ml portions of cell suspension, test drugs or vehicle are added and incubated at 37° C. for 10 minutes. Following this preincubation, the calcium ionophore (10 μM), a23187, is added together with 0.5 μM [14 C] arachidonic acid and further incubated for 10 minutes. The reaction is stopped by the addition of ice cold water (3 ml) and acidifying to pH 3.5. Lipoxygenase products are then extracted twice into diethyl ether. The pooled ether extracts are evaporated to dryness under nitrogen and the residue is redissolved in a small volume of methanol and spotted on aluminum backed pre-coated thin layer chromatographic plates. The samples are then cochromatographed with authentic reference 5-HETE in the solvent system - hexane: ether: acetic acid (50:50:3). After chromatography, the areas associated with 5-HETE standard are identified by autoradiography, cut out and quantitated by liquid scintillation.

Experiment [5] deals with cyclooxygenase. In words: inhibition of synthesis of cyclooxygenase products TxB2 and PGE2 (rat polymorphonuclear leukocytes). The experiment is classed as cell-based. To be noted: 10 μM; rat PMN; negative = potentiation of PGE2 synthesis. Here is the method:
as §4
However, in order to determine cyclooxygenase activity, the samples are cochromatographed with authentic reference TxB2 and PGE2 in the solvent system ethyl acetate: formic acid (80:1) and the upper phase of ethyl acetate: isooctane: acetic acid: water (110:50:20:100). After chromatography, the areas associated with the TxB2 and PGE2 standards are identified by autoradiography, cut out and quantitated by liquid scintillation techniques.

The mark [6] stands for this setting: 5 min, p.o., 1 hour prior to anti-BSA, rat, read-out: ED50 TxB2.
The mark [7] stands for this setting: 10 min, p.o., 1 hour prior to anti-BSA, rat, read-out: ED50 LTB4.
Setting [8] is: p.o., 1 hour prior to anti-BSA, rat, 10 min.
The mark [9] stands for this setting: p.o., 1 hour prior to anti-BSA, rat, 5 min.

Consider `C[C@@H]1C[C@H]2[C@@H]3CCC4=CC(=O)C=C[C@]4(C)[C@@]3(F)[C@@H](O)C[C@]2(C)[C@@]1(O)C(=O)CO` [Dexamethasone], for which the “ED30 Fluid Exudation” value in experiment [1] was 0.05 mg/kg. In experiment [1] (read-out: ED30 Cellular Influx), the ED30 worked out at 0.13 mg/kg.
Turning to `O=C1CCN(c2ccccc2)N1` [Phenidone], the figures for the ED50 in experiment [2] (setting [6]) and in experiment [2] (setting [7]) were 69 mg/kg and 10 mg/kg, respectively. The ED30 is 23 mg/kg in experiment [1] (read-out: ED30 Cellular Influx) and 21 mg/kg in experiment [1] (read-out: ED30 Fluid Exudation).
`C[C@H](C(=O)O)c1ccc2cc(OCc3ccc4ccccc4n3)ccc2c1.NC(CO)(CO)CO` [Wy-50,295-A]: in experiment [2] (75 mg/kg p.o., rat), the “% Inh TxB2” value is on record as 0%. Also, in experiment [2] (setting [8]), the “ED50 LTB4” value was found to be 15 mg/kg.
With `CC(C(=O)O)c1cccc(C(=O)c2ccccc2)c1` (centres unmarked) [Ketoprofen], the “% Inh LTB4” value in experiment [2] (10 mg/kg p.o., rat) turned out to be 35%. Further, the ED50 in experiment [2] (5 min, read-out: ED50 TxB2) was 0.18 mg/kg.
For the molecule `CN=C1CCN(c2cccc(C(F)(F)F)c2)N1` [BW540C], in experiment [2] (setting [9]), the “ED50 TxB2” value turned out to be 19 mg/kg. In addition, the “ED50 LTB4” value in experiment [2] (setting [8]) was determined as 30 mg/kg.
In the case of `O=S(=O)(Nc1cccc(OCc2ccc3ccccc3n2)c1)C(F)(F)F` [Wy-48,252, reference compound], the pKB in experiment [3] came out at 6.90 ± 0.23.
Regarding `COc1ccc2cc([C@H](C)C(=O)O)ccc2c1` [naproxen], the inhibition at 10 µM in experiment [4] is -94%. Further, the “% Inhibition of CO (as PGE2)” value in experiment [5] stood at 85%. Moreover, the “% Inh LTB4” value in experiment [2] (4 mg/kg p.o., rat) was found to be 0%. For the same molecule, in experiment [2] (setting [9]), the “ED50 TxB2” value is 0.24 mg/kg. Moreover, the “% Inh Cellular Influx” value in experiment [1] (8 mg/kg p.o.) is listed as 29%. The “ED30 Fluid Exudation” value in experiment [1] came to 3.9 mg/kg.
Turning to `NC1=NN(c2cccc(C(F)(F)F)c2)CC1` [BW755C], the figures for the ED50 in experiment [2] (setting [6]) and in experiment [2] (setting [7]) were 18 mg/kg and 23 mg/kg, respectively. In addition, the ED30 in experiment [1] (read-out: ED30 Cellular Influx) was found to be 28 mg/kg; in experiment [1] (read-out: ED30 Fluid Exudation), 14 mg/kg.
For the molecule `CN1C(C(=O)Nc2ccccn2)=C(O)c2ccccc2S1(=O)=O` [Piroxican], the ED30 in experiment [1] (read-out: ED30 Cellular Influx) was 3 mg/kg; in experiment [1] (read-out: ED30 Fluid Exudation) it was 1 mg/kg.
`CCCc1c(OCCCCc2nn[nH]n2)ccc(C(C)=O)c1O` [Ly-171,883, reference compound] returned a pKB in experiment [3] of 7.44 ± 0.12.
